For orientation: melting point means the temperature of the solid-liquid transition. Consider `Cc1ccc(CNc2nc(Nc3cccc(N4CCOCC4)c3)nc(OCC(F)(F)F)n2)o1`, for which the melting point is 130 to 134 °C.

As for `Brc1ccc2c(c1Cc1cccc3cnccc13)OCO2`, the melting point is 194 to 197 °C.

`C=CCSc1nc2ccc(OCC)cc2[nH]1` had a melting point of 147 to 149 °C.

`COc1ccc(CCNc2c(C)c(C)c3c(c2C)C(c2ccc(C(C)C)cc2)C(C)(C)O3)cc1` (stereo not drawn) returned a melting point of 63 to 65 °C.

In turn, `COc1ccc(CN2C(=O)C(C)(c3cc(CO)ccc3Cl)c3cc(Cl)ccc32)c(OC)c1` (stereo not drawn) registered a melting point of 97 °C.

Consider `CC(=O)OC1C=C(C)C(=O)CC(C)(C)C1OC(C)=O` (stereo not drawn), for which the melting point is 68 to 69 °C.

Compound `CCc1c(Sc2cc(Cl)cc(Cl)c2)c(CC#N)nn1CCO` registered a melting point of 84 to 85 °C.

As for `CN(C)CCCOc1ccc(C=CC(=O)N2CCc3c([nH]c4ccccc34)C2c2ccc3c(c2)CCO3)cc1` (stereo not drawn), the melting point was found to be 186 °C.

Turning to `COC(=O)CCCCCOc1ccc(NC(=O)CCCCCOCc2ccccc2)cc1`, the melting point fell in the range of 64 to 65.6 °C.

As for `COP(=O)(Cc1ccc([N+](=O)[O-])c2ccccc12)OC`, the melting point lay in the range of 128 to 129 °C.

As for `CC(C)c1cc(O)cc(C(C)C)c1NC(=O)CN1CCN(CCCSc2nc3ccccc3o2)CC1`, the melting point was in the range of 201 to 203 °C.

On to `CC(C)(COc1ccc(Cl)cc1)C(=O)COc1ccc(Cl)cc1`, for which the melting point fell in the range of 76 to 77 °C.

Compound `NC(=O)c1cc(Cl)ccc1SSc1ccc(Cl)cc1C(N)=O` yielded a melting point of 278 to 282 °C.

Compound `Cc1ccc(CCC(=O)NCCCCN2CCN(C(c3ccccc3)c3ccccc3)CC2)cn1` returned a melting point of 126 to 127 °C.

`O=c1[nH][nH]c(=O)c2c(O)c3ccc(F)cc3nc12`: the melting point was determined as 228 °C.

For the compound `CCOC(=O)c1ccc2c(c1)S(=O)c1ccccc1-2` (stereo not drawn), the melting point was in the range of 210 to 213 °C.

Turning to `CC(=O)Oc1cc(COC(=O)c2ccccc2)cnc1C`, the melting point is 57 °C.

For the compound `CC(=O)OCCCn1nc(-c2cc(C(C)(C)C)c(O)c(C(C)(C)C)c2)c2cccnc21`, the melting point fell in the range of 75 to 77 °C.

In turn, `O=P(O)(O)Cc1cccc(C(F)(F)F)c1` had a melting point of 163 to 164 °C.

For `CCOC(=O)C1=C(COCCNc2nc(C(C)=O)c[nH]2)NC(C)=C(C(=O)OC)C1c1cccc(Cl)c1Cl` (stereo not drawn), the melting point turned out to be 177 °C.

Regarding `NC(=O)c1sc2nc(N3CCC(NCC(O)c4ccc5c(c4)OCO5)CC3)cc(C(F)(F)F)c2c1N` (stereo not drawn), the melting point lay in the range of 232 to 234 °C.

For the compound `O=C1CCC(N2Cc3c(OCc4cc(Cl)cc(Cl)c4)cccc3C2=O)C(=O)N1` (stereo not drawn), the melting point lay in the range of 271 to 273 °C.

In turn, `CC1(Cl)C(=S)Nc2ccc(Cl)cc21` (stereo not drawn) gave a melting point of 248 to 251 °C.

In turn, `Cc1nonc1-n1cc(C(=O)O)c(=O)c2c(C)c(F)c(F)cc21` returned a melting point of 200 to 202 °C.

Turning to `S=c1[nH]c(-c2ccc(Br)cc2)c(-c2ccc(Br)cc2)[nH]1`, the melting point was determined as 288 °C.

Compound `COC(=O)C1=C(CF)NC(C)=C(C(=O)OC(C)C)C1c1cccc(OC)c1OC` (stereo not drawn) displayed a melting point of 89 to 91 °C.

Turning to `CC1CCCC(C)N1Cc1ccc2cc(NC(=O)c3ccc(-c4ccc(F)cc4)cc3)ccc2n1` (stereo not drawn), the melting point lay within 187 to 188 °C.

Take `C[Si](C)(C)CCOCn1cc(C#N)c(=O)c2cc(N)c(N)cc21`: the melting point was above 300 °C.

`CCC(CC)Nc1ccc2c(c1)N1CCCN=C1S2` displayed a melting point of 114 °C.

As to `Fc1cc(F)cc(CN2CCN(c3cc(-c4ccccc4)c(C(F)(F)F)nn3)CC2)c1`, the melting point was 139 °C.

On to `COC(=O)C(C)(C)Sc1cccc(OC(=O)Nc2ccc(C(F)(F)F)cc2)c1`, for which the melting point was in the range of 66 to 67 °C.

For `CCOC(=O)C(=CN(C)C)C(=O)C(Cl)Cl`, the melting point was 71 to 72 °C.

Take `O[C@@H](CNCCOc1ccc2oc(-c3ccon3)cc2c1)COc1ccccc1Cl`: the melting point lay in the range of 93 to 96 °C.

As for `COc1cc2c(Nc3ccc(Sc4nccn4C)c(Cl)c3)c(C#N)cnc2cc1NCCCN(C)C`, the melting point was 198 to 200 °C.

The compound `CCOC(=O)c1cnc(-c2cc3cccc(NS(=O)(=O)c4cccs4)c3n2COC)s1` returned a melting point of 133 to 134 °C.

On to `CCCCCCCCCCC=NNC(=N)N`, for which the melting point was found to be 101 °C.

`CC1(C)OCc2cc(Cl)cc(C(C)(O)c3cn(C(c4ccccc4)(c4ccccc4)c4ccccc4)cn3)c2O1` (stereo not drawn) yielded a melting point of 182 to 184 °C.

Take `CCc1ccccc1NC(=O)C(C#N)=CN(C)C`: the melting point lay in the range of 128 to 130 °C.

`c1cc(-c2noc(C3CC3)n2)cnn1` had a melting point of 115 to 117 °C.

`Fc1c(Cl)cc(Br)c2ccccc12` displayed a melting point of 48 to 51 °C.

As to `Cc1ccc(S(=O)(=O)N2CCCC2c2cccs2)cc1` (racemic), the melting point came out at 108 °C.

With `COC(=O)c1cc(N)c(F)c(Cl)n1`, the melting point fell in the range of 180 to 183 °C.

As to `CC(=O)Oc1cc(CNC=C2C(=O)NC(=O)c3ccc(Br)cc32)cc(OC(C)=O)c1`, the melting point lay in the range of 257 to 258 °C.

For `Cc1ccc(S(=O)(=O)c2ccc3c(c2)C(O)C(Br)C(C)(C)O3)cc1` (stereo not drawn), the melting point lay within 141 to 142 °C.

The compound `COC(=O)C(=Cc1ccccc1)c1ccc2nc(-c3ccccc3)oc2c1` came in with a melting point of 184 to 185 °C.

Compound `CCN1CCC(=O)N(c2ccccc2C(C)C)C1=S` gave a melting point of 118 to 122 °C.

Compound `Cc1cccc(C)c1NC(=O)CCCc1cccnc1` displayed a melting point of 98 to 99 °C.

For the compound `O=S(=O)(NCc1ccc(Cl)cc1)c1c[nH]cn1`, the melting point was 196 to 198 °C.

For the compound `CCN(CC)CCNc1ccc(CO)c2sc3ccc(OC)cc3c(=O)c12`, the melting point was 103 to 105 °C.

Compound `COCCOc1ccc(CCNC(=O)C=Cc2ccccc2)cc1S(N)(=O)=O` yielded a melting point of 133 °C.

As for `CCCOc1cc2sc(C(=O)O)cc2cc1OCC`, the melting point is 192 to 194 °C.

Compound `O=c1c2c(Br)cc(Br)cc2n(Cc2ccccc2)c(=O)n1Cc1ccccc1` showed a melting point of 169 to 172 °C.

`O=C(Cc1ccc2ccn(C3CCN(CCc4ccccc4F)CC3)c2c1)NCCO` yielded a melting point of 128 to 129 °C.

Regarding `CC(C)(C)N1CCCC1=C(C#N)c1ccc(Cl)cc1`, the melting point is 150 to 153 °C.

`Cc1ccc(C(=S)c2cc(C(C)(C)C)c(O)c(C(C)(C)C)c2)cc1` gave a melting point of 135 to 136 °C.

`CCN1CCCC1c1cccc(OC(=O)NC)c1` (stereo not drawn): the melting point fell in the range of 67 to 69 °C.

`CCOC(=O)Cc1coc2c(OC)ccc(C(=O)Cc3c(Cl)cncc3Cl)c12` returned a melting point of 105 to 115 °C.

Turning to `CCCc1nc(SC(F)F)c(C(=O)O)n1Cc1ccc(-c2ccccc2S(=O)(=O)NC(=O)NCc2ccccc2)cc1`, the melting point came to 150 °C.

For the compound `Cc1noc(NS(=O)(=O)c2ccc(-c3ccccn3)s2)c1Br`, the melting point fell in the range of 186 to 188 °C.

`CN1CC(c2ccc(Cl)cc2)=NNC1=O` registered a melting point of 195 to 197 °C.

For `CN(C)CCOc1ccc2[nH]c(C(=O)N3CC(CCl)c4c3cc([N+](=O)[O-])c3cc(S(=O)(=O)NCCO)ccc43)cc2c1` (stereo not drawn), the melting point fell in the range of 205 to 210 °C.

Consider `COC(=O)Cn1ccc2ccc(-c3nccc(-c4ccccc4)n3)cc21`, for which the melting point came out at 111 °C.

`O=C(Nc1ccc(C(=O)N2Cc3ccccc3Cc3ccccc32)cc1)c1ccccc1` displayed a melting point of 219 to 221 °C.

For the origin of these results see a melting point compilation (Tetko et al.; mined from patent text by program, amines drawn as free bases though some values may be those of a salt).
